Data taken from US6699676B1, “Uses of ouabain and ouabain-like molecules in apoptosis related pathologies” (Corporation du Centre de Recherche du Centre, Hospitalier …, priority 1999, dated 2004).

Columns and labels:
Jurkat cells = assay: Chromatin cleavage assay in Jurkat cells; assay type: cell-based, human; settings: for Chromatin fragments (%): 1 mM, 2 hours + 7 hours; for content of chromatin fragments: 3 hours, 0.25 μM staurosporine or 350 mM mannitol (from 2.6±1.2)
Experimental: FIG. 4. Effect of ouabain on chromatin cleavage in Jurkat cells. (A) Kinetics of accumulation of chromatin fragments in control (curves 1, 3) and ouabain-treated (curves 2, 4) cells in the absence (curves 1, 2) or presence (curves 3, 4) of 100 ng/ml of anti-human Fas (mouse monoclonal IgM, Upstate Biotechnology, Lake Placid, N.Y.); (B) Content of chromatin fragments in Jurkat cells subjected to 3 hours of incubation with or without 1 mM ouabain, 0.25 μM staurosporine and 350 mM mannitol. In both experiments, ouabain was added 2 hours before triggering of apoptosis. Mean values±S.E. obtained in experiments performed in triplicate are given.
To estimate chromatin cleavage, cells were incubated for 2 hours in the presence of 10% calf serum in the control solution (DMEM, [Na^+]=137 mM; [K^+]=5 mM—line 1) or under equimolar substitution of NaCl with KCl ([Na^+]=14 mM; [K^+]=128 mM—line 2) with or without 1 mM ouabain and then for an additional 7 hours at the same media with or without 100 ng/ml Fas ligand (Fas-L). Intracellular Na^+ and K^+ content was measured as steady-state distribution of isotopes after 24 hours preincubation of cells in control Na^+-enriched solution containing 0.5 μCi/ml ^86Rb or 2 μCi/ml ^22Na, and an additional 6 hours incubation in Na^+—(line 1) or K^+—(line 2) enriched medium containing 10% calf serum, isotopes with the same specific activity with or without 1 mM ouabain. For more details see Experimental Procedures. Mean values±S.E. obtained in experiments performed in triplicate are given. ★, #p<0.01 and 0.001 compared to ouabain-untreated cells.
Cells. VSMC were obtained by explant methods from aortas of 10- to 13-week-old male rats as described previously (17), cultured in DMEM with 10% calf serum, 100 U/ml penicillin, 100 µg/ml streptomycin and used between 10 to 16 passages. Cells transfected with c-myc (VSMC-MYC) and E1A-adenovirus (VSMC-E1A) were obtained in accordance with a previously-described protocol (18,19) and were cultured in the same medium with the addition of 500 µg/ml genticin. Jurkat cells were obtained from the American Type Culture Collection and cultured in RPMI 1640 medium supplied with 10% calf serum, antibiotics, sodium pyruvate, glutamate and β-mercaptoethanol.
Chromatin cleavage assay. Chromatin cleavage in VSMC was estimated by a technique described previously in detail (10). Briefly, VSMC grown in 24-well dishes were labeled for 24 hours in serum-supplied DMEM with [^3H]-thymidine (1 μCi/ml), washed with 2×2 ml of DMEM and incubated in serum-supplied DMEM. In 48 hr, the cells were pretreated with ouabain or K^+-depleted medium as indicated in FIG. 2 and Table 3, washed twice with serum-containing medium and incubated with 0.5 ml of medium with or without ouabain and containing different inducers of apoptosis. To measure the content of chromatin fragments, the cells were transferred on ice and 1 ml of ice-cold lysed buffer (10 mM EDTA, 10 mM tris-HCl, 0.5% triton X100 (pH 8.0)) was added. After 15 min, the cell lysate was transferred to Ependorf tubes, sedimented (12,000 rpm, 10 mm), and 1 ml of supernatant was transferred for the measurement of radioactivity (A1t). The remaining radioactivity from pellets and wells was extracted with 0.5 ml of 1% SDS/4 mM EDTA mixture, combined and counted (A2). Chromatin cleavage was quantified as the content of chromatin fragments normalized by total content of [^3H]-labeled DNA in accordance with the equation [1.5×(A1t−A1o)/(A2+A1t−1.5A1o)]×100% where A1o is the value of A1t before induction of apoptosis. To measure chromatin fragmentation in [^3H]-thymidine-labeled Jurkat cells, they were resuspended at a density of 10^6 cells/ml in medium containing 10% calf serum and the additions indicated in FIG. 4 and Table 4. At the time intervals shown in FIG. 4, 100 μl of cell suspension was mixed with 100 μl of PBS contairung 0.5% triton X100, and the content of chromatin fragments was measured as described previously in detail (20).

caspase-3 = assay: Caspase-3 activity in treated VSMC-E1A; assay type: cell-based, rat
Experimental: FIG. 5. Effect of ouabain on caspase-3 activity in VSMC-E1A (A) and Jurkat cells (B). VSMC-E1A and Jurkat cells were pretreated with 1 mM ouabain for 1 and 2 hours, respectively, and the additions indicated below the bars were delivered in media with 10% calf serum and with the baseline (137/5) or inverse (14/128) [Na^+]o/[K^+]o ratio for 6 (VSMC-E1A) or 3 hours (Jurkat cells). In experiments with VSMC-E1A, calf serum (CS) was omitted where indicated (−). Abbreviations: staur.—staurosporine (0.25 μM), ok.ac.—okadaic acid (1 μM), mann.—mannitol (350 mM); Fas-L—Fas ligand (100 ng/ml). Mean values±S.E. obtained in experiments performed in quadruplicate (A) or triplicate (B) are given. ★p<0.001 compared to ouabain-untreated cells.
Caspase activity. VSMC-E1A seeded in 20 cm^2 flasks and treated as indicated in FIG. 5 were scratched, transferred to centrifuge tubes, washed twice with PBS and lysed in 0.5 ml of buffer A contaming 50 mM tris-HCl (pH 7.4), 5 mM MgCl2, 1 mM EGTA and 0.1% CHAPS. Then, 50-100 μl of cell lysate was mixed with 600 μl of buffer A containing 1 mM dithiothreitol, 40 μM YVAD-AMC or DEVD-AMC with or without 1 μM of caspase-1 and capspase-3 inhibitors (Ac-YVAD-CHO and Ac-DEVD-CHO, respectively), incubated for 2 hours at 37° C. and diluted 15-fold with 80 mM glycine-NaOH buffer (pH 10). Fluorescence of the samples was measured at ex=365 run and em=465 run and calibrated with AMC in the range of 10 to 100 nM. To measure caspase activity in control and ouabain-treated Jurkat cells, 5 ml of suspension containing ˜2×10^7 cells was transferred onto ice and sedimented. The pellet of cells was washed and treated with 0.3 ml of medium A in the same way as VSMC. Protein content was estimated by Bradford methods.

Compound | chromatin cleavage in the absence of triggers of apoptosis (Jurkat cells; Jurkat cells, 2 hours ouabain pretreatment, subsequent 3 hours) | increment of chromatin cleavage triggered by Fas ligand, staurosporine or mannitol (Jurkat cells; Jurkat cells, ouabain, 3 hours treatment with trigger) | Chromatin fragments (%) (Jurkat cells; ouabain-treated Jurkat cells, +Fas-L 100 ng/ml, medium [Na+]o=14, [K+]o=128 mM) | Chromatin fragments (%) (Jurkat cells; ouabain-treated Jurkat cells, +Fas-L 100 ng/ml, medium [Na+]o=137, [K+]o=5 mM) | Chromatin fragments (%) (Jurkat cells; ouabain-treated Jurkat cells, no Fas-L, medium [Na+]o=14, [K+]o=128 mM) | Chromatin fragments (%) (Jurkat cells; ouabain-treated Jurkat cells, no Fas-L, medium [Na+]o=14, [K+]o=128 mM, listed as ouabain) | Chromatin fragments (%) (Jurkat cells; ouabain-treated Jurkat cells, no Fas-L, medium [Na+]o=137, [K+]o=5 mM) | Chromatin fragments (%) (Jurkat cells; ouabain-treated Jurkat cells, no Fas-L, medium [Na+]o=137, [K+]o=5 mM, listed as ouabain) | increment of the content of chromatin fragments triggered by Fas ligand (Jurkat cells; ouabain-treated Jurkat cells, 7-hr incubation) [%] | increment of caspase-3 activity under induction of apoptosis (caspase-3; 1 mM ouabain, control medium) | caspase-3 activity in apoptosis triggered by okadaic acid (caspase-3; ouabain, K+-enriched, Na+-depleted medium ([Na+]o/[K+]o=14/128)) | baseline activity of caspase-3 (caspase-3; pretreatment 1 hour with 1 mM ouabain (from 560±41)) | content of chromatin fragments (Jurkat cells; Jurkat cells) [%] | caspase-3 activity under mannitol-induced cell shrinkage (caspase-3; 350 mM mannitol, 6 hours) | increase of caspase-3 activity (caspase-3; 6 hours, staurosporine 0.25 μM, okadaic acid 1 μM) [fold]
C[C@@H]1O[C@@H](O[C@H]2C[C@@H](O)[C@]3(CO)[C@H]4[C@H](O)C[C@]5(C)[C@@H](C6=CC(=O)OC6)CC[C@]5(O)[C@@H]4CC[C@]3(O)C2)[C@H](O)[C@H](O)[C@H]1O [Ouabain, 1β,3β,5,11α,14,19-hexahydroxycard 20 [22]-enolide 3-[6-deoxy-α-L-mannopyrano-sidel]] | did not significantly modify chromatin cleavage | did not observe any effect | 22.7 | 42.7 | 5.7 | 5.7±2.0 | 16.0 | 16.0±4.6 | 26.2±4.7 | abolished the increment of caspase-3 activity | did not observe any effect | 101±39 pmol (mg prot)^−1 hr^−1 | – | – | –
OC[C@@H](O)[C@@H](O)[C@H](O)[C@H](O)CO [mannitol] | – | – | – | – | – | – | – | – | – | – | – | – | 15.6±2.9 | insensitive to mannitol-induced cell shrinkage | –
CN[C@@H]1C[C@H]2O[C@@](C)([C@@H]1OC)n1c3ccccc3c3c4c(c5c6ccccc6n2c5c31)C(=O)NC4 [staurosporine] | – | – | – | – | – | – | – | – | – | – | – | – | 19.7±4.3 | – | 8
